Some targets named below: Adenosine receptor A2a (Homo sapiens, UniProt P29274); Motilin receptor (Homo sapiens, UniProt O43193); Histamine H3 receptor (Homo sapiens, UniProt Q9Y5N1).
Experiment [1] addresses Glutamate receptor ionotropic, NMDA 1 (Rattus norvegicus, UniProt P35439).
Experiment [2] concerns the target cGMP-inhibited 3',5'-cyclic phosphodiesterase 3A (Homo sapiens, UniProt Q14432). It is filed as functional.
Experiment [3] addresses Sodium-dependent noradrenaline transporter (Homo sapiens, UniProt P23975).
The target of experiment [4] is Beta-2 adrenergic receptor (Homo sapiens, UniProt P07550).
Experiment [5] has as its target 5-hydroxytryptamine receptor 2A (Homo sapiens, UniProt P28223). It is filed as functional, cell-based.
Experiment [6] addresses T1, Muscarinic acetylcholine receptor M1 (Homo sapiens, UniProt P11229).
T1 sequence (P11229 whole entry): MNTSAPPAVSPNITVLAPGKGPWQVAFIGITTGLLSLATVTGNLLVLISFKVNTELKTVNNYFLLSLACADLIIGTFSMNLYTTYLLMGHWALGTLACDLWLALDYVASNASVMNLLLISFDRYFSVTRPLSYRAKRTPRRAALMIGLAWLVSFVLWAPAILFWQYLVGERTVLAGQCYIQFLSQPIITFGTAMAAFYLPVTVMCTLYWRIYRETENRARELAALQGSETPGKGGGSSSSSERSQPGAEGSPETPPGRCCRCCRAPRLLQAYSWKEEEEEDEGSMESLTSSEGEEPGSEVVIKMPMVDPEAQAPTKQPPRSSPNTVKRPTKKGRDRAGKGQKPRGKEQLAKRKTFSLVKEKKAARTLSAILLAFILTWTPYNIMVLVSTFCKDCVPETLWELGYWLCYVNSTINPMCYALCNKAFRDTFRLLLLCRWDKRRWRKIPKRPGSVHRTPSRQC
Type of experiment: functional.

Experiment [7] has as its target T2, 5-hydroxytryptamine receptor 2C (Homo sapiens, UniProt P28335).
T2 sequence (P28335 whole entry): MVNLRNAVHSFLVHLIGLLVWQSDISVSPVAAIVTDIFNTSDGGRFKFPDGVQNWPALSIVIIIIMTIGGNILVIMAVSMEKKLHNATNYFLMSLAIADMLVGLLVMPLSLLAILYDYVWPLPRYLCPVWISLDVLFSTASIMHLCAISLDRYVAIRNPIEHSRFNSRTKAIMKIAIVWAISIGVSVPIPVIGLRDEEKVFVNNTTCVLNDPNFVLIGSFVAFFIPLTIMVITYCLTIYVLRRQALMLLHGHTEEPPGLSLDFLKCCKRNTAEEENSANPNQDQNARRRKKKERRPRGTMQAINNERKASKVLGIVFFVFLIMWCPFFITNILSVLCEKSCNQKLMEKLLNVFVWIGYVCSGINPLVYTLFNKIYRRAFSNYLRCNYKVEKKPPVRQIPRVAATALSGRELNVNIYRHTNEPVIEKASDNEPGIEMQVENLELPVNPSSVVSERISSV

In experiment [8] the target is T3, Gamma-aminobutyric acid receptor subunit alpha-1 (Rattus norvegicus, UniProt P62813). Type of experiment: functional.
For a further experiment, the target named is Histamine H2 receptor (Homo sapiens, UniProt P25021). Type of experiment: functional, cell-based.
For experiment [9], the target named is T3, Gamma-aminobutyric acid receptor subunit alpha-1.
Experiment [10] has as its target Growth hormone secretagogue receptor type 1 (Homo sapiens, UniProt Q92847).
Experiment [11] concerns the target 5-hydroxytryptamine receptor 2B (Homo sapiens, UniProt P41595). It is filed as functional, cell-based.
For the next experiment, the target named is Cannabinoid receptor 1 (Homo sapiens, UniProt P21554). It is filed as functional, cell-based.
The target of experiment [12] is Beta-1 adrenergic receptor (Homo sapiens, UniProt P08588). It is filed as functional.
The target in experiment [13] is Sodium-dependent dopamine transporter (Homo sapiens, UniProt Q01959).
The target in experiment [14] is Sodium-dependent serotonin transporter (Homo sapiens, UniProt P31645).
The target in experiment [15] is T4, Neuropeptide Y receptor type 1 (Homo sapiens, UniProt P25929).
T4 sequence (P25929 whole entry): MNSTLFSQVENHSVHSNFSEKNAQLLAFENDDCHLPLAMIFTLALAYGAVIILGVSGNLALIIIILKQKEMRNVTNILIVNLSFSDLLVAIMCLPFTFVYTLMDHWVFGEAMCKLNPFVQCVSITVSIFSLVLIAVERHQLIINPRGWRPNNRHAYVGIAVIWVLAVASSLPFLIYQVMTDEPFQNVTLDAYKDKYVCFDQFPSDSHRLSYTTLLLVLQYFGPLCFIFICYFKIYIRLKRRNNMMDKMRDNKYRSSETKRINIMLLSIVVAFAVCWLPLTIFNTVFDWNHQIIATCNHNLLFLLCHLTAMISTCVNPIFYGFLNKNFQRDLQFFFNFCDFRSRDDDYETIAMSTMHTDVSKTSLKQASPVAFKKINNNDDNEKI

Experiment [16] has as its target T5, Alpha-2A adrenergic receptor (Homo sapiens, UniProt P08913).
T5 sequence (P08913 whole entry): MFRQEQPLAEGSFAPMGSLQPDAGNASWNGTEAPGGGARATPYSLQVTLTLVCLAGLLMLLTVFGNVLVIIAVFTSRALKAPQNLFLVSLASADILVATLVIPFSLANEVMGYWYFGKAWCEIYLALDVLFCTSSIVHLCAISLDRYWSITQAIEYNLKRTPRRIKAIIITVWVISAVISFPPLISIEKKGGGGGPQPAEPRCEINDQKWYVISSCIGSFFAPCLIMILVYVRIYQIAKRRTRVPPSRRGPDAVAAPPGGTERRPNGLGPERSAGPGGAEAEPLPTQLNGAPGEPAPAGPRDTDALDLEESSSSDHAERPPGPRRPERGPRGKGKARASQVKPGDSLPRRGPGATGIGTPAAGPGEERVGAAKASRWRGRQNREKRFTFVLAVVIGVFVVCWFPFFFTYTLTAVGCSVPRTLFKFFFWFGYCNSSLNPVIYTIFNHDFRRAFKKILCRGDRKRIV
It is filed as functional, cell-based.
Further: assay procedure not described here.

Chain of Adenosine receptor A2a (P29274 whole entry): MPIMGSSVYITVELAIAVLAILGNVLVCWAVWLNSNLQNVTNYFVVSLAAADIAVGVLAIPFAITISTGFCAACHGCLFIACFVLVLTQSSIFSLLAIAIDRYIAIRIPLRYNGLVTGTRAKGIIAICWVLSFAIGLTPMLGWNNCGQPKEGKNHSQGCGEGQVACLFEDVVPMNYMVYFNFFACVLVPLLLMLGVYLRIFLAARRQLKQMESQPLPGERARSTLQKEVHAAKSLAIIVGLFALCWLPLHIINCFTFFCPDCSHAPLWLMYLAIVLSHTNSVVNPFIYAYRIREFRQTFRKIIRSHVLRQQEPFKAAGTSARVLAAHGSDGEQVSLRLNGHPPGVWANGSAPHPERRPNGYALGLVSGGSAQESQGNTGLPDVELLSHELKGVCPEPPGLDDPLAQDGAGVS
Chain of cGMP-inhibited 3',5'-cyclic phosphodiesterase 3A (Q14432 whole entry): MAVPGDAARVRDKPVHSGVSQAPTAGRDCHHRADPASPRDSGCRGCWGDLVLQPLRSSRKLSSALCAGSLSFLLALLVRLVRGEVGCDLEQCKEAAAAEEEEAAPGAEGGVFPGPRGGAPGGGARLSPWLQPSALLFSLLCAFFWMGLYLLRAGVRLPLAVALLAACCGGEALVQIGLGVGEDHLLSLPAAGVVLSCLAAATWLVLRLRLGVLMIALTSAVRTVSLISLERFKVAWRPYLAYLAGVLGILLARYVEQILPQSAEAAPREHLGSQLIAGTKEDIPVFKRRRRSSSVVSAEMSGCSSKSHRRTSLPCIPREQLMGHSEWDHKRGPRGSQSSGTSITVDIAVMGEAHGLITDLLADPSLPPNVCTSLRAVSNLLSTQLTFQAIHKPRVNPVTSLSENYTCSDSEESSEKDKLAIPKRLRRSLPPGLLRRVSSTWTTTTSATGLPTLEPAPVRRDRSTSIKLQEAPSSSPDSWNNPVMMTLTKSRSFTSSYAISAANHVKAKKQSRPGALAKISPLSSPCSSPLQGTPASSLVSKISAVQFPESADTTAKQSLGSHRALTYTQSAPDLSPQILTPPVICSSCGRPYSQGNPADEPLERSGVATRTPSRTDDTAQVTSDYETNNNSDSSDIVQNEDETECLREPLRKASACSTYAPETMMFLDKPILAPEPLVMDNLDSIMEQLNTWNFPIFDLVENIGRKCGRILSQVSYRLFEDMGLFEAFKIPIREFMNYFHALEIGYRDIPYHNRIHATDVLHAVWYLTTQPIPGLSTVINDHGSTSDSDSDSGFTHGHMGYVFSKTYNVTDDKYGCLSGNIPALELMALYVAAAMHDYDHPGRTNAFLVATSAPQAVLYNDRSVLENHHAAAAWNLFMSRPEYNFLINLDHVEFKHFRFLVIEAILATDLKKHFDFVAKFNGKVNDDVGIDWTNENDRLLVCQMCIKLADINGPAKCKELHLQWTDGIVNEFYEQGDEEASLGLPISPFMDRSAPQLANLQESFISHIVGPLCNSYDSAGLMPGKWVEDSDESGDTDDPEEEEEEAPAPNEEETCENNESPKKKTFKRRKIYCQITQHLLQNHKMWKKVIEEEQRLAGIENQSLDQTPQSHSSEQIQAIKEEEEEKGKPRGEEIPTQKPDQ
Chain of Sodium-dependent noradrenaline transporter (P23975 whole entry): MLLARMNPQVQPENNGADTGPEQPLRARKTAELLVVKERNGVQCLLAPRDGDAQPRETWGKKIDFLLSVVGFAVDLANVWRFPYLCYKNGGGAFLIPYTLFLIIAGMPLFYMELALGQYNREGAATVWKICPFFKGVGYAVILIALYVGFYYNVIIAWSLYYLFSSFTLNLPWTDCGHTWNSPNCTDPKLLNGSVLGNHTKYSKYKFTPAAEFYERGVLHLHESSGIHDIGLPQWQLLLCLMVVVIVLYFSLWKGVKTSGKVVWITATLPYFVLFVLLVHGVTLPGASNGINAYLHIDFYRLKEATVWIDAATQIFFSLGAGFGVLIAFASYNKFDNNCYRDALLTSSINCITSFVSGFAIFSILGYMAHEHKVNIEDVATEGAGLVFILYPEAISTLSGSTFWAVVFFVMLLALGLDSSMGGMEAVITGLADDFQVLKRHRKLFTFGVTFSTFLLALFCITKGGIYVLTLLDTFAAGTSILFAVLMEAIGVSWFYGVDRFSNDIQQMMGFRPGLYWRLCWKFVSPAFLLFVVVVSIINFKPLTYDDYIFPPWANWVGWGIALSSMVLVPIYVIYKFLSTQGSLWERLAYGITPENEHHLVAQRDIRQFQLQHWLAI
Chain of 5-hydroxytryptamine receptor 2B (P41595 whole entry): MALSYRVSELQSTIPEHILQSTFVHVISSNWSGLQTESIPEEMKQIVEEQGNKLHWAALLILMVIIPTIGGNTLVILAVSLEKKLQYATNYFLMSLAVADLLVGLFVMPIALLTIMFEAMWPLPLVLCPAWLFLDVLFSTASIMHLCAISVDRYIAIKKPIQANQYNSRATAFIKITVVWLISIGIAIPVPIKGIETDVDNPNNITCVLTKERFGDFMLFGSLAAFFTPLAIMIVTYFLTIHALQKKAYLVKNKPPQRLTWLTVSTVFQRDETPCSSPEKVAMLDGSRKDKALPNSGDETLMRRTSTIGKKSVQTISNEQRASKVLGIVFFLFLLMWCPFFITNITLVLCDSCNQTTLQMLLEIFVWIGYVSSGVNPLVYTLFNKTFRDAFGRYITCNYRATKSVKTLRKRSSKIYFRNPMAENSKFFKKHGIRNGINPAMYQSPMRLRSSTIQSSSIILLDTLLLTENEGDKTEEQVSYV
Chain of Motilin receptor (O43193 whole entry): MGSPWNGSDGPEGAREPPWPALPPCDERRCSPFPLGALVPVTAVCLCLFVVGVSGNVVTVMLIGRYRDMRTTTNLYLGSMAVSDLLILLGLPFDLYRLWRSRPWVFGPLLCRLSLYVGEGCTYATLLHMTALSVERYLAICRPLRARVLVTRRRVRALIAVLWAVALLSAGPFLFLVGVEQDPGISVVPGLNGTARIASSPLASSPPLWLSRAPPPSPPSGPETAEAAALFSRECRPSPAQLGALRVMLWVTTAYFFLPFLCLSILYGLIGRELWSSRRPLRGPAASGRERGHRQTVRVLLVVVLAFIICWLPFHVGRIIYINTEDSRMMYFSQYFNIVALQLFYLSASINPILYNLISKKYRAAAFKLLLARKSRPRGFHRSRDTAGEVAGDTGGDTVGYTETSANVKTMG
Chain of Beta-2 adrenergic receptor (P07550 whole entry): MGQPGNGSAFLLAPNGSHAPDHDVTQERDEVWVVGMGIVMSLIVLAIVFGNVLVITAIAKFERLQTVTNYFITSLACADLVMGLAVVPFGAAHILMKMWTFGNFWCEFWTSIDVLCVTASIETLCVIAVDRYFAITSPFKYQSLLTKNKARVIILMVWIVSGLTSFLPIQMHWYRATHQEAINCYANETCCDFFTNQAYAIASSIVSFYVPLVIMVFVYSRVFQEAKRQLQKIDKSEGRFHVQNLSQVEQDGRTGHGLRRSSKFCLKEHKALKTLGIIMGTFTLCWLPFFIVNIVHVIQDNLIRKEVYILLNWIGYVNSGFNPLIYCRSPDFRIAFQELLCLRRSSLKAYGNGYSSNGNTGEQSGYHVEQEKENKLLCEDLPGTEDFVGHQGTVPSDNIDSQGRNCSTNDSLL
Chain of Histamine H3 receptor (Q9Y5N1 whole entry): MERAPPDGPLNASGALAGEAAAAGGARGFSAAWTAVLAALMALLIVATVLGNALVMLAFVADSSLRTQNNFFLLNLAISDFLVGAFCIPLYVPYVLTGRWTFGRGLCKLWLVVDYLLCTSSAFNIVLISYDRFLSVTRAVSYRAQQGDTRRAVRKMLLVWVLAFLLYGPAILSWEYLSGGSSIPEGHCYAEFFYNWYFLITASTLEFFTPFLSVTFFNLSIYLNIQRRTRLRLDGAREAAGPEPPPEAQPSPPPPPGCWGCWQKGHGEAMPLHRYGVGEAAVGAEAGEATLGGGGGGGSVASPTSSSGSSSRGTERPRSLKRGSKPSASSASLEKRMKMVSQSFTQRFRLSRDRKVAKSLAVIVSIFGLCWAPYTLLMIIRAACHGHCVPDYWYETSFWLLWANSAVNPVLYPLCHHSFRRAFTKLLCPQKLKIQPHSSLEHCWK
Chain of Beta-1 adrenergic receptor (P08588 whole entry): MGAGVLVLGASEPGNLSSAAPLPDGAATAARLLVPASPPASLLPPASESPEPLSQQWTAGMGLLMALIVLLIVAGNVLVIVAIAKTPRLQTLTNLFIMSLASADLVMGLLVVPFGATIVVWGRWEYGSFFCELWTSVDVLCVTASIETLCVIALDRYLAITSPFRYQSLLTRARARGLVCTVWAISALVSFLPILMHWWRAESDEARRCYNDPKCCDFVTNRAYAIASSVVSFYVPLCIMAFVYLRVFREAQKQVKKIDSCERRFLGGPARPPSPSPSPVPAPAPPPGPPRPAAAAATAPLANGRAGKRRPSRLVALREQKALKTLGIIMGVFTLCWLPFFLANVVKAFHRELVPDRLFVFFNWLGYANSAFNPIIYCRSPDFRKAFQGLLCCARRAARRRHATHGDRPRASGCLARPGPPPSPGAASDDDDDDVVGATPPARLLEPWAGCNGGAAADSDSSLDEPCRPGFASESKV
Chain of Growth hormone secretagogue receptor type 1 (Q92847 whole entry): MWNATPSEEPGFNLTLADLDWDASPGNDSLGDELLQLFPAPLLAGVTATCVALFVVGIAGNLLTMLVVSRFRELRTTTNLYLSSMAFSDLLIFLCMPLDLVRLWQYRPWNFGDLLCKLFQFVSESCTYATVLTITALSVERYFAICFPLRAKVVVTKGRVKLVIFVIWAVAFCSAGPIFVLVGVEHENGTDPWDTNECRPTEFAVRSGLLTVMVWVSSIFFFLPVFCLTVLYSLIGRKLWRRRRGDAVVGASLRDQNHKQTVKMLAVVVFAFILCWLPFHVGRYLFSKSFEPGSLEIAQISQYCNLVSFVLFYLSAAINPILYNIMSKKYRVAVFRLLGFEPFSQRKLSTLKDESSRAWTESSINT

By AC50 is commonly meant the concentration giving half of the maximal activity seen. Lower therefore signals activity at low concentration. In the case of `CCCCCCCCOc1ccccc1C(=O)Nc1ccc(C(=O)OCC[N+](C)(CC)CC)cc1` [OTILONIUM BROMIDE], the AC50 in experiment [1] was above 30 µM; in experiment [2] it was 20 µM; on Adenosine receptor A2a it was 5.3 µM; in experiment [3] it was 3.3 µM; in experiment [4], 11 µM; in experiment [5] it was 3.9 µM. Also, the AC50 in experiment [6] is 1.3 µM; in experiment [7], 1.1 µM; on Motilin receptor, 5.7 µM; in [8] it was above 30 µM; at Histamine H2 receptor, above 30 µM; in experiment [9], above 30 µM. Besides, the AC50 in experiment [10] stood at 7.6 µM; in experiment [11] it was 3.1 µM; at Cannabinoid receptor 1, 19 µM; in experiment [12], 11 µM; in experiment [13] it was 4.4 µM; in experiment [14], 0.91 µM. The AC50 in experiment [15] turned out to be 10 µM; on Histamine H3 receptor it was 17 µM.

As to `CCCCCCCCCCCC[N+](C)(C)CCOc1ccccc1` [DOMIPHEN], the AC50 is above 30 µM in experiment [1]; above 30 µM in experiment [2]; above 30 µM on Adenosine receptor A2a; 1.4 µM in [3]; 15 µM in experiment [4]; 0.94 µM in [5]. In addition, the half-maximal activity concentration (AC50) in experiment [6] is 8.9 µM; in [7], 1.1 µM; at Motilin receptor, 3 µM; in experiment [8] it was above 30 µM; at Histamine H2 receptor, above 30 µM; in experiment [9] it was above 30 µM. Besides, the concentration at half-maximal activity (AC50) in experiment [10] was found to be 5.7 µM; in experiment [11] it was 11 µM; at Cannabinoid receptor 1, 17 µM; in experiment [12] it was 3.1 µM; in experiment [13], 2.5 µM; in [14], 1.7 µM. Besides, the AC50 in experiment [15] was 4.4 µM; at Histamine H3 receptor, 12 µM.

Turning to `CC(C)C(=O)OCC(=O)[C@@]12O[C@H](C3CCCCC3)O[C@@H]1C[C@H]1[C@@H]3CCC4=CC(=O)C=C[C@]4(C)[C@H]3[C@@H](O)C[C@@]12C` [CICLESONIDE], the AC50 is above 10 µM in experiment [16]; above 10 µM in experiment [1]; above 30 µM in [2]; above 30 µM at Adenosine receptor A2a; above 10 µM in experiment [3]; above 10 µM in [4]. The half-maximal activity concentration (AC50) is above 10 µM in [5]; above 10 µM in [6]; above 30 µM in [7]; above 10 µM on Motilin receptor; above 10 µM in [8]; above 10 µM on Histamine H2 receptor. The AC50 is above 30 µM in [9]; above 10 µM in experiment [10]; above 10 µM in experiment [11]; above 30 µM on Cannabinoid receptor 1; above 10 µM in experiment [12]; above 10 µM in [13]. In addition, the AC50 in experiment [14] and in experiment [15] was above 10 µM each time.

`CCCCOc1cc(C(=O)NCCN(CC)CC)c2ccccc2n1` [DIBUCAINE]: the half-maximal activity concentration (AC50) in [16] was above 10 µM; in [1], above 10 µM; in experiment [2] it was above 30 µM; at Adenosine receptor A2a, above 30 µM; in experiment [3] it was above 10 µM; in [4] it was above 10 µM. The AC50 was above 10 µM in [5]; above 10 µM in experiment [6]; above 30 µM in experiment [7]; above 30 µM at Motilin receptor; above 30 µM in experiment [8]; above 10 µM at Histamine H2 receptor. Also, the AC50 was above 30 µM in experiment [9]; 15.8 µM in [10]; above 10 µM in [11]; above 30 µM at Cannabinoid receptor 1; above 10 µM in [12]; above 10 µM in experiment [13]. For the same compound, the AC50 was above 10 µM in experiment [14] and above 30 µM in experiment [15].

With `C[C@H]1C[C@@H]2[C@H]([C@@H](O)C[C@@]3(C)[C@H]2CC[C@]3(O)C(=O)COC(=O)CCC(=O)O)[C@@]2(C)C=CC(=O)C=C12` [METHYLPREDNISOLONE HEMISUCCINATE], the concentration at half-maximal activity (AC50) (in experiment [16]; in experiment [1]; in [2]; on Adenosine receptor A2a; in experiment [3]; in [5]) was above 30 µM throughout. The AC50 (in [6]; in experiment [7]; at Motilin receptor; in experiment [8]; on Histamine H2 receptor; in [9]) was above 30 µM in each case. Further, the AC50 (in experiment [10]; in experiment [11]; at Cannabinoid receptor 1; in experiment [12]; in [13]; in experiment [14]) was above 30 µM each time. Besides, the concentration at half-maximal activity (AC50) (in experiment [15]; on Histamine H3 receptor) was above 30 µM throughout.

With `CCOc1cc(N)c([N+](=O)[O-])cc1C(=O)NC1CCN(CC2CC=CCC2)CC1` (stereo not given) [CINITAPRIDE], the AC50 in [16] is above 30 µM; in experiment [1], above 30 µM; in experiment [2], above 30 µM; on Adenosine receptor A2a, above 30 µM; in experiment [3], 24 µM; in experiment [4] it was 16 µM. The AC50 is 0.07 µM in experiment [5]; 14 µM in experiment [6]; 8.1 µM on Motilin receptor; 14 µM in experiment [8]; above 30 µM on Histamine H2 receptor; above 30 µM in [9]. Further, the concentration at half-maximal activity (AC50) was above 30 µM in experiment [10]; 0.19 µM in [11]; above 30 µM at Cannabinoid receptor 1; above 30 µM in [12]; 20 µM in experiment [13]; 14 µM in experiment [14]. Moreover, the half-maximal activity concentration (AC50) in [15] is above 30 µM; on Histamine H3 receptor, 5.9 µM.

For the origin of these results see ChEMBL document CHEMBL5291721, “A preclinical secondary pharmacology resource illuminates target-adverse drug reaction associations of marketed drugs” (Nat Commun, 2023).
